Source: patent US7387807B2, “Topical composition comprising feverfew” (Johnson & Johnson Consumer France, SAS, Roc Division, priority 1999, dated 2008)

Tests used:
Assay type in all cases: in vivo
Albino male CD-1 mice [1] = experiment: Oxazolone contact hypersensitivity, mouse ear; conditions: 0.1% topical, 20 μL to ear 1 hour after challenge; ear weight at 24 hours
Method: The following experiments were carried out to test the effect of feverfew and substantially parthenolide-free feverfew in a contact […] assay. In this assay, the compositions of the invention were evaluated against hydrocortisone, a steroid known to inhibit contact hypersensitivity. Albino male CD-1 mice, 7-9 weeks old, were induce on the shaved abdomen with 50 μL of 3% oxazolone in acetone/corn oil Day 0). On Day 5, a 20 μL volume of 2% oxazolone in acetone was […] to the dorsal left ear of the mouse. […] The right ear was not treated. The mice were sacrificed by CO2 inhalation 24 hours after the oxazolone challenge, the left and right ears were removed and a 7 mm biopsy was taken from each ear and weighed. The difference in biopsy weights between the right and left ear was calculated. Antiinflammatory effects of compounds are evident as an inhibition of the increase in ear weight.

human volunteers [2] = experiment: Treatment of UVB induced erythema, human study; conditions: 2 mg/cm^2 immediately after 2MED UV and 5 and 8 hours later
Method: Ten healthy volunteers were irradiated with 2MED UV light on five distinct spots of the volar forearms. Test product was applied (2 mg/cm^2) on the irradiated sites immediately after irradiation, and 5 and 8 hours later. Erythema scores were measured before irradiation and 1, 4, 7 and 24 hours later. The following reductions in erythema were obtained: […]

human volunteers [3] = experiment: Prevention of trauma (stratum corneum stripping) induced erythema, human study; conditions: applied twice daily for 2 days before stripping, total 2 hour period, compared to the vehicle
Method: Test product was applied to the ventral side of the forearm twice daily for 2 consecutive days. […] Chromameter measurements were made prior to stripping and at 0.5, 1, 1.5 and 2 hours posts tripping. The Colorimetric Erythema Index (CEI) was calculated for each time point. For the total 2 hour period, and compared to the vehicle, the following reductions in erythema were obtained;

human volunteers [4] = experiment: Treatment of trauma (stratum corneum stripping) induced erythema, human study; conditions: applied for 2 hours immediately after stripping, total 2 hour period, compared to the vehicle
Method: Test product was applied to the ventral side of the forearm for 2 hours, immediately after stripping. Chromameter measurements were made prior to stripping and at 0.5, 1, 1.5 and 2 hours post stripping. The Colorimetric Erythema Index (CEI) was calculated for each time point. For the total 2 hour period, and compared to the vehicle, the following reductions in erythema were obtained: […]

Albino male CD-1 mice [5] = experiment: Phorbol ester (TPA) induced mouse ear edema; conditions: 0.1% topical, 20 μL immediately after TPA; 5.5 hours
Method: The following experiments were carried out to test the effect of feverfew and substantially parthenolide-free feverfew in a phorbol ester PITA) induced edema assay. […] Albino male CD-1 mice, 7-9 weeks old, were used. A 0.005% (w/v) TPA solution was made in acetone. A 20 μL volume of this TPA solution was applied to the dorsal left ear of the mouse. Test compounds were applied immediately to the left ear (20 μL) after TPA in a 70% ethanol/propylene glycol vehicle. The right ear was not treated. The mice were sacrificed by CO2 inhalation (5.5 hours after TPA), the left and right ears were removed and a 7 mm biopsy was removed from each ear and weighed. The difference in biopsy weights between the right and left ear was calculated.

human volunteers [6] = experiment: Prevention of UVB induced erythema, human study; conditions: 2 mg/cm^2 twice daily for 2 days before 2MED UVB
Method: Test product was applied to 5 different locations on the volar forearm twice daily for 2 consecutive days (2 mg/cm^2). The sites were exposed to 2MED UVB. Chromameter measurements were made prior to irradiation and at 18, 24, 42 and 48 hours post irradiation. The Colorimetric Erythema Index (CEI) was calculated for each time point. The following reductions in erythema were obtained: […]

Albino male CD-1 mice [7] = experiment: Arachidonic acid induced ear edema; conditions: 20 μl immediately after AA, 1 hour
Method: In this in vivo model, feverfew's ability to reduce arachidonic acid induced edema was compared to the known cycloxygenase/lipoxgenase inhibitor tepoxalin. Albino male CD-1 mice, 7-9 weeks old, were used. A 20% (w/v) arachidonic acid (AA) solution was made in acetone. A 20 μl volume of the AA was applied to the dorsal left ear of the mouse. Test compounds (20 μl) were applied immediately to the left ear after AA in a 70% ethanol/30% propylene glycol vehicle. The right ear was not treated. The mice were sacrificed by CO2 inhalation 1 hour after AA, the left and right ears were removed and a 7 mm biopsy was removed from each ear and weighed. The difference in biopsy weights between the right and left ear was calculated. Antiinflammatory effects of compounds are evident as an inhibition of the increase in ear weight.

C[C@]12CCC(=O)C=C1CC[C@@H]1[C@@H]2[C@@H](O)C[C@@]2(C)[C@H]1CC[C@]2(O)C(=O)CO [Hydrocortisone]
Oxazolone contact hypersensitivity % Inhibition, Study 1 (Albino male CD-1 mice [1]): 96.9% | Oxazolone contact hypersensitivity % Inhibition, Study 2 (Albino male CD-1 mice [1]): 87.6% | Oxazolone contact hypersensitivity % Inhibition, Study 3 (Albino male CD-1 mice [1]): 91.0% | Reduction of Erythema (%) (human volunteers [2]; 0.1%): 3.2% | Reduction of Erythema (%) (human volunteers [2]; 1%): 17.7% | Reduction of Erythema (%) (human volunteers [3]; 0.1%): 10% | Reduction of Erythema (%) (human volunteers [3]; 1%): 19% | Reduction of Erythema (%) (human volunteers [4]; 0.1%): −3% | Reduction of Erythema (%) (human volunteers [4]; 1%): 14% | TPA induced ear edema, inhibition of the increase in ear weight, Study 1 (Albino male CD-1 mice [5]): 96.9 | Reduction of Erythema (%) (human volunteers [6]; 0.1%): 2.5% | Reduction of Erythema (%) (human volunteers [6]; 1%): 5.7%

C[C@@H]1C[C@H]2[C@@H]3CCC4=CC(=O)C=C[C@]4(C)[C@@]3(F)[C@@H](O)C[C@]2(C)[C@@]1(O)C(=O)CO [Dexamethasone]
TPA induced ear edema, inhibition of the increase in ear weight, Study 2 (Albino male CD-1 mice [5]): 97.2

COc1ccc(-n2nc(CCC(=O)N(C)O)cc2-c2ccc(Cl)cc2)cc1 [Tepoxalin]
Arachidonic acid induced ear edema % Inhibition (Albino male CD-1 mice [7]; 0.1% topical): 10.84% | Arachidonic acid induced ear edema % Inhibition (Albino male CD-1 mice [7]; 1.0% topical): 42.38% | Arachidonic acid induced ear edema % Inhibition (Albino male CD-1 mice [7]; 2.0% topical): 61.06%
